Laboratory results as given in PMC8044227, “Cardiolipin enhances the enzymatic activity of cytochrome bd and cytochrome bo3 solubilized in dodecyl-maltoside” (Scientific Reports, 2021).
One block for each molecule: values may come before it.

Key:
Type in all cases: biochemical
[1] = target: T1, cytochrome bd (E. coli) (Escherichia coli, UniProt P0ABJ9); assay: O2 consumption activation, Clark-type electrode; details: activator; bovine heart lipid, mixed acyl chains (primarily linoleic acid); ubiquinol-1 substrate; 0.025% DDM, pH 7.5, 37 °C
T1 construct: gene cydA; CydABX complex, Strep-tag, expressed in E. coli MB43, streptactin-purified in DDM
T1 sequence (P0ABJ9 1-522): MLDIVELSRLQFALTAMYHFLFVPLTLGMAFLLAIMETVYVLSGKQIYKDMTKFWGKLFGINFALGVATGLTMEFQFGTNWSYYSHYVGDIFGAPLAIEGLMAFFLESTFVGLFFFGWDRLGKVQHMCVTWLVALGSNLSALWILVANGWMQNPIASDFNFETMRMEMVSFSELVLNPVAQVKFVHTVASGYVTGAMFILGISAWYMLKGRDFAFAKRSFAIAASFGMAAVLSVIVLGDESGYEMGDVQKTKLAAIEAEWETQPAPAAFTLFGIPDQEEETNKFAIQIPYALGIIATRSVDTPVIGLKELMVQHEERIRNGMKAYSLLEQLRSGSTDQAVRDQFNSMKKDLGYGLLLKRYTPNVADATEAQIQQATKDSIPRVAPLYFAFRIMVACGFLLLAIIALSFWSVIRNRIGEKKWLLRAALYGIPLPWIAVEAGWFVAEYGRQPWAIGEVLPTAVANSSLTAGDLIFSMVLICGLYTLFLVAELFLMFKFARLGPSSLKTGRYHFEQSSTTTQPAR
T1 sequence (P0ABK2 1-379 partner): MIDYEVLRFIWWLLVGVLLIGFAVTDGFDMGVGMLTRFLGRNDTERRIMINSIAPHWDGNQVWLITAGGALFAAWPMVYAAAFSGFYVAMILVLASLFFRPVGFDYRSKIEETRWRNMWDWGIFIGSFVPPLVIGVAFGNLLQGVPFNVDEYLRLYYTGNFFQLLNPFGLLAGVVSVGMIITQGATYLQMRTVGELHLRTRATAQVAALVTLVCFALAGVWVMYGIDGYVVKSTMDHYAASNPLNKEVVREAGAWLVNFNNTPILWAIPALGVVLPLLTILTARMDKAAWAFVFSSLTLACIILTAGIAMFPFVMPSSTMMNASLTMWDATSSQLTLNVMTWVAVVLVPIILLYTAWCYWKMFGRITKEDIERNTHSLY
T1 sequence (P56100 1-37 partner): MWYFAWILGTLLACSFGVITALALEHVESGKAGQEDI
Source text: O2 consumption activation, Clark-type electrode on cytochrome bd (E. coli) | We examined the effect of CL and observed ~ twofold activation of the oxygen consumption activity

[2] = target: T2, cytochrome bd (C. glutamicum) (Corynebacterium glutamicum, UniProt Q9KWL8); assay: O2 consumption inhibition, Clark-type electrode; details: menaquinol-1 substrate (200 μM quinone, 10 mM DTT); 0.025% DDM, pH 7.5, 37 °C; no cardiolipin
T2 construct: gene cydA; expressed from pPC4-cydABDC in C. glutamicum delta-ctaD, purified from membranes in DDM (CydD and CydC are not oxidase subunits)

[3] = target: T3, cytochrome bd (G. thermodenitrificans) (Geobacillus stearothermophilus, UniProt Q9Z9N1); assay: O2 consumption inhibition, Clark-type electrode; details: menaquinol-1 substrate (200 μM quinone, 10 mM DTT); 0.025% DDM, pH 7.5, 37 °C; no cardiolipin
T3 construct: gene cbdA; CbdAB expressed from pSTE-cbdAB in G. thermodenitrificans K1041, purified from membranes in MEGA9+10
T3 sequence (Q9Z9N1 1-448): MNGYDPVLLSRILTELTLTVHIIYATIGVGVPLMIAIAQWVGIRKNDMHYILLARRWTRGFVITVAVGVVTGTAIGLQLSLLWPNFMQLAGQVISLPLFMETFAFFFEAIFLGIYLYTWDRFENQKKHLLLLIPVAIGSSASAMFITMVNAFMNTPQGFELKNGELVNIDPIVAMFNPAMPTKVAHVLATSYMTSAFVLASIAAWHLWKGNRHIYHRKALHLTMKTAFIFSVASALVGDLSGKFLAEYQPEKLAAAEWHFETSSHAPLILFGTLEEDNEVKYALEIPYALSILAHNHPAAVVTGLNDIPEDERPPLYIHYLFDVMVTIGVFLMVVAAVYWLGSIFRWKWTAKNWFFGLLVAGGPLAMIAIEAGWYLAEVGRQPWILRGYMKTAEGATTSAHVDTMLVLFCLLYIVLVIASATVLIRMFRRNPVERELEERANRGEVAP
T3 sequence (Q9Z9N0 1-342 partner): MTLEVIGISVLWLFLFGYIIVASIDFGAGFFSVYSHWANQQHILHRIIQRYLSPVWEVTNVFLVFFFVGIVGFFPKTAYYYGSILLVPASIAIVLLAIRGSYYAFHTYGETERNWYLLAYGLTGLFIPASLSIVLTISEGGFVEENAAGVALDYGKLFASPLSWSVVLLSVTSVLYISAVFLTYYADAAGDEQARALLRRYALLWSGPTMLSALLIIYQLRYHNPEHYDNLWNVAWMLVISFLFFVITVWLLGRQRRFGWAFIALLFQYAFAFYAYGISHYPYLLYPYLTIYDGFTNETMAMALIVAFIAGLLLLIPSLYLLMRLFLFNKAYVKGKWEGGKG

[4] = target: T3, cytochrome bd (G. thermodenitrificans); assay: O2 consumption, Clark-type electrode; details: 200 μM quinone, 10 mM DTT; 0.025% DDM, pH 7.5, 37 °C; no cardiolipin
[5] = target: T2, cytochrome bd (C. glutamicum); assay: O2 consumption, Clark-type electrode; details: 200 μM quinone, 10 mM DTT; 0.025% DDM, pH 7.5, 37 °C; no cardiolipin

fold activation at 10 μM [1]: ~ 2 fold
Molecule: cardiolipin [CL]

Molecule: CC(C)=CCC/C(C)=C/CC/C(C)=C/Cc1c(C)[nH]c2ccccc2c1=O [aurachin D]
inhibition at 400 nM [2]: oxygen consumption activity in the presence and absence of CL was sensitive to inhibition by aurachin D
inhibition at 400 nM [3]: G. thermodenitrificans cytochrome bd was sensitive to inhibition by aurachin D

Molecule: CC(C)=CCc1c(C)c(O)c2ccccc2c1O [menaquinol-1]
O2 consumption, Clark-type electrode [4]: using menaquinol-1 instead of ubiquinol-1 as substrate
O2 consumption, Clark-type electrode [5]: using menaquinol-1 instead of ubiquinol-1 as substrate
